biological target: hERG channel (Homo sapiens (Human), UniProt Q12809); experiment: hERG-Channel Assay (Assay 3), whole-cell patch clamp; format: cell-based; conditions: HEK293 cells transfected with hERG, 35° C.
Description: HEK (human embryonic kidney) 293 cells were stably transfected with hERG cDNA.
Cells were superfused with a bath solution containing (mM): NaCl (137), KCl (4.0), MgCl2 (1.0), CaCl2 (1.8), Glucose (10), HEPES (10), pH 7.4 with NaOH. Patch pipettes were made from borosilicate glass tubing using a horizontal puller and filled with pipette solution containing (mM): K-aspartate (130), MgCl2 (5.0), EGTA (5.0), K2ATP (4.0), HEPES (10.0), pH 7.2 with KOH. Resistance of the microelectrodes was in the range between 2 and 5 MΩ.
Membrane currents were recorded using an EPC-10 patch clamp amplifier and PatchMaster software. hERG-mediated membrane currents were recorded at 35° C., using the whole-cell configuration of the patch-clamp technique. Transfected HEK293 cells were clamped at a holding potential of −60 mV and hERG-mediated inactivating tail currents were elicited using a pulse pattern with fixed amplitudes (activation/inactivation: 40 mV for 2000 ms; recovery: −120 mV for 2 ms; ramp to 40 mV in 2 ms; inactivating tail current: 40 mV for 50 ms) repeated at 15 s intervals. During each inter-pulse interval 4 pulses scaled down by a factor of 0.2 were recorded for a P/n leak subtraction procedure. Rs compensation was employed up to a level that safely allowed recording devoid of ringing.
The different concentrations of the test compound were applied sequentially on each of the different cells investigated. A steady state level of baseline current was measured for at least 6 sweeps prior to the application of the first test compound concentration.
The test compound was dissolved in DMSO to yield a master stock solution which was diluted further in DMSO to stock solutions needed for the lower concentrations. Final dilutions in extracellular buffer were prepared freshly from these stocks by a 1:1000 dilution step each before starting the experiments.
Peak current amplitudes were measured 3 ms after the ramp to +40 mV. For baseline and each concentration the peak currents of the three last sweeps before application of the next concentration were averaged. Residual currents (I/I0) were calculated for each cell as the fraction of actual average peak current and average baseline peak current. Results are presented as percent (%) inhibition (1−I/I0)*100% at 10 μM.

Sequence of hERG channel (Q12809 whole entry): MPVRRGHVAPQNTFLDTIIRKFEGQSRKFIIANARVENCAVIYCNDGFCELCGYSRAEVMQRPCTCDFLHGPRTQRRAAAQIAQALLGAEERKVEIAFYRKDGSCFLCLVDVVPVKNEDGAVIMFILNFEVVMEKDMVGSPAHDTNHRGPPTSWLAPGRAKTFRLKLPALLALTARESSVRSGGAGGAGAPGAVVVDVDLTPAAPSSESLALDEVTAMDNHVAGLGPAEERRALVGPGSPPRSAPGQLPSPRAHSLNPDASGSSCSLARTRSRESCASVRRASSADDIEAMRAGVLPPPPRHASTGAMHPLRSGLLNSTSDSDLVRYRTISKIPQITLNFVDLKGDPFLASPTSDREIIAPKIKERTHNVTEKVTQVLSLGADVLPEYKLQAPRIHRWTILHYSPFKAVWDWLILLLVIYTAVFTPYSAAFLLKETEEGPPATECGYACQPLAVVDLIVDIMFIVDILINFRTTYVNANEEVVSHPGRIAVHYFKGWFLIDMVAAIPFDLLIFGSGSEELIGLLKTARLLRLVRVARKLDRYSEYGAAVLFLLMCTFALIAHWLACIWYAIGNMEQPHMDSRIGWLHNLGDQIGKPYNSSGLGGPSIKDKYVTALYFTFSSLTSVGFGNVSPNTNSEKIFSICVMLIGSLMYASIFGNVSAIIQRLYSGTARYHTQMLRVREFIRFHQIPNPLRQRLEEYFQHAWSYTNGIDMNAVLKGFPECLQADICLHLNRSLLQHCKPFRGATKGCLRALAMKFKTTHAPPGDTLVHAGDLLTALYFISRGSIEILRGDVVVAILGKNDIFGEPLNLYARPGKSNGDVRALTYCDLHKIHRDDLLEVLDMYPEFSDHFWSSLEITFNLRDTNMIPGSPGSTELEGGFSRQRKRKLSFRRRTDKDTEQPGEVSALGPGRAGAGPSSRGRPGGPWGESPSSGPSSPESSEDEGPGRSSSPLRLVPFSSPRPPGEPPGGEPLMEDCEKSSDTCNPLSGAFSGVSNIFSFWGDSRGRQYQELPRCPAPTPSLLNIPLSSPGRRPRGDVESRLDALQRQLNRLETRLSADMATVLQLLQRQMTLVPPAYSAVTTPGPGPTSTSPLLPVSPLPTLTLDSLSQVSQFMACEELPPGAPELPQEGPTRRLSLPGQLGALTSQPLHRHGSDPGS

| Compound | hERG % inhibition @ 10 μM (assay 3) [%] |
| --- | --- |
| CO[C@H]1CC[C@@]2(Cc3ccc(C#N)cc3[C@]23N=C(N)N(CC2(C)COC2)C3=O)C[C@@H]1C [Example 8] | 16 |
| CO[C@H]1[C@H](C)C[C@@]2(Cc3ccc(C#N)cc3[C@]23N=C(N)N(CC2(C)COC2)C3=O)C[C@@H]1C [Example 11] | 6 |
| CO[C@H]1CC[C@@]2(Cc3ccc(C#N)cc3[C@]23N=C(N)N(Cc2ncccn2)C3=O)C[C@@H]1C [Example 6] | 35 |
| CC[C@@H]1C[C@]2(CC[C@H]1OC)Cc1ccc(C#N)cc1[C@]21N=C(N)N(C[C@H]2COCCO2)C1=O [Example 28] | 9 |
| CO[C@H]1[C@H](C)C[C@@]2(Cc3ccc(C#N)cc3[C@]23N=C(N)N(C[C@@H]2CCO2)C3=O)C[C@@H]1C (stereo in doubt) [Example 18] | 17 |
| CO[C@H]1[C@H](C)C[C@@]2(Cc3ccc(C#N)cc3[C@]23N=C(N)N(C[C@H]2CCCO2)C3=O)C[C@@H]1C [Example 14] | 20 |
| CO[C@H]1[C@H](C)C[C@@]2(Cc3ccc(C#N)cc3[C@]23N=C(N)N(CCC2COC2)C3=O)C[C@@H]1C [Example 19] | 8 |
| CO[C@H]1[C@H](C)C[C@@]2(Cc3ccc(C#N)cc3[C@]23N=C(N)N(C2COC2)C3=O)C[C@@H]1C [Example 12] | 11 |
| CC[C@@H]1C[C@]2(CC[C@H]1OC)Cc1ccc(C#N)cc1[C@]21N=C(N)N(Cc2ncccn2)C1=O [Example 1] | 8 |
| CO[C@H]1[C@H](C)C[C@@]2(Cc3ccc(F)cc3[C@]23N=C(N)N(CC2(C)OCCO2)C3=O)C[C@@H]1C [Example 29] | 7 |
| CO[C@H]1CC[C@@]2(Cc3ccc(C#N)cc3[C@]23N=C(N)N(Cc2ccncn2)C3=O)C[C@@H]1C [Example 9] | 16 |
| CO[C@H]1[C@H](C)C[C@@]2(Cc3ccc(C#N)cc3[C@]23N=C(N)N(CC(C)(C)F)C3=O)C[C@@H]1C [Example 17] | 12 |
| CO[C@H]1[C@H](C)C[C@@]2(Cc3ccc(C#N)cc3[C@]23N=C(N)N(CC2(C)OCCO2)C3=O)C[C@@H]1C [Example 20] | 8 |
| COC1CCC2(CC1)Cc1ccc(C#N)cc1C21N=C(N)N(CC2CCCO2)C1=O (stereo not drawn) [Comparison example drawing 13, reference compound] | 16 |
| CC[C@@H]1C[C@@]2(Cc3ccc(C#N)cc3[C@]23N=C(N)N(CC(C)(C)F)C3=O)C[C@H](C)[C@H]1OC [Example 26] | 8 |
| CC[C@@H]1C[C@]2(CC[C@H]1OC)Cc1ccc(C#N)cc1[C@]21N=C(N)N(CC2(F)CCOCC2)C1=O [Example 4] | 0 |
| CC[C@H]1C[C@@]2(CC[C@@H]1OC)Cc1ccc(C#N)cc1[C@]21N=C(N)N(C[C@H]2CCCO2)C1=O [Example 5] | 7 |
| CO[C@H]1[C@H](C)C[C@@]2(Cc3ccc(C#N)cc3[C@]23N=C(N)N(CC2(F)CCOCC2)C3=O)C[C@@H]1C [Example 23] | 16 |
| CO[C@H]1[C@H](C)C[C@@]2(Cc3ccc(F)cc3[C@]23N=C(N)N(C[C@@H]2CCOC2)C3=O)C[C@@H]1C [Example 25] | 10 |
| CO[C@H]1CC[C@@]2(Cc3ccc(C#N)cc3[C@]23N=C(N)N(CC2COCCO2)C3=O)C[C@@H]1C (stereo partly drawn) [Example 27] | 19 |
| CO[C@H]1[C@H](C)C[C@@]2(Cc3ccc(C#N)cc3[C@]23N=C(N)N(Cc2ccncn2)C3=O)C[C@@H]1C [Example 24] | 23 |
| CO[C@H]1[C@H](C)C[C@@]2(Cc3ccc(C#N)cc3[C@]23N=C(N)N(C[C@H]2COCCO2)C3=O)C[C@@H]1C [Example 22] | 9 |
| CC[C@@H]1C[C@]2(CC[C@H]1OC)Cc1ccc(C#N)cc1[C@]21N=C(N)N(CC2CCOCC2)C1=O [Example 2] | 22 |
| CO[C@H]1[C@H](C)C[C@@]2(Cc3ccc(C#N)cc3[C@]23N=C(N)N(Cc2ncc(F)cn2)C3=O)C[C@@H]1C [Example 10] | 38 |
| CC[C@@H]1C[C@]2(CC[C@H]1OC)Cc1ccc(C#N)cc1[C@]21N=C(N)N(CC(C)(C)F)C1=O [Example 3] | 9 |
| CO[C@H]1[C@H](C)C[C@@]2(Cc3ccc(C#N)cc3[C@]23N=C(N)N(CC2CCOCC2)C3=O)C[C@@H]1C [Example 16] | 6 |
| CO[C@H]1[C@H](C)C[C@@]2(Cc3ccc(C#N)cc3[C@]23N=C(N)N(CC2COC2)C3=O)C[C@@H]1C [Example 13] | 18 |
| CO[C@H]1[C@H](C)C[C@@]2(Cc3ccc(C#N)cc3[C@]23N=C(N)N(C[C@@H]2COCCO2)C3=O)C[C@@H]1C [Example 21] | 24 |
| CO[C@H]1[C@H](C)C[C@@]2(Cc3ccc(C#N)cc3[C@]23N=C(N)N(C[C@@H]2CCCO2)C3=O)C[C@@H]1C [Example 15] | 11 |
| COCCN1C(=O)[C@]2(N=C1N)c1cc(C#N)ccc1C[C@@]21CC[C@H](OC)[C@@H](C)C1 [Example 7] | 8 |

Source: patent US9949975B2, “Inhibitors of beta-secretase” (Vitae Pharmaceuticals, Inc., priority 2012, dated 2018)
